Experimental data taken from US7838485B2, “Biodegradable alkaline disinfectant cleaner with analyzable surfactant” (American Sterilizer Company, priority 2007, dated 2010).

System: S. aureus ATCC 6538
Experiment: Quantitative modified AOAC Use Dilution Test, log reduction on stainless steel penicylinders
Assay type: cell-based
Settings: 5% Fetal bovine serum soil load, contact time 10 min., 10% of the product
From the text: Tests were done using the aforementioned modified version of the AOAC Use Dilution Test, to quantify the number of viable bacteria remaining on the stainless steel penicylinders. […] Starting populations are listed in parentheses.

[Na+].[OH-] [13% NaOH, sodium hydroxide]
Average Log Reduction (40° C.): 2.69
Average Log Reduction (60° C.): 7.00
Average Log Reduction (RT): 1.76
